Converted amounts (≈) assume the structure as drawn. Read-outs that look alike come from different tables or passages of the source.
Experiments:
[1] = test system: GN10 Pseudomonas aeruginosa; experiment: Pre-chequerboard MIC, broth microdilution (Example 6); type: cell-based; settings: ATCC 27853 / GN10, ATCC 27853, antibiotic susceptible
From the text: (§1) A chequerboard technique was used to identify possible synergistic or antagonistic interactions between the 4-oxoquinolizines compounds, levofloxacin and polymyxin B. Levofloxacin was included as a control. […] Final dilutions were made in Mueller-Hinton broth, the specific test medium used for MIC determinations according to CLSI guidelines (CLSI. Methods for Dilution Antimicrobial Susceptibility Tests for Bacteria That Grow Aerobically; Approved Standard-Eighth Edition (2009). CLSI Document M07-A8. CLSI, Wayne, Pa. 19087-1898, USA.). The test medium used was a cation-adjusted Mueller-Hinton Broth II (Becton Dickinson UK Ltd., Oxford Science Park, Oxford, UK, OX4 4DQ).
(§2) The compounds 2, 33 and 35, as well as levofloxacin were tested in combination with polymyxin B on the following isolates: GN31 Acinetobacter baumannii—antibiotic susceptible clinical isolate, GN52 Acinetobacter baumannii—levofloxacin resistant clinical isolate, GN56 Acinetobacter baumannii—levofloxacin resistant clinical isolate, GN48 Klebsiella pneumoniae—NCTC 13443—NDM-1-metallo-R-lactamase and GN10 Pseudomonas aeruginosa—ATCC 27853—antibiotic susceptible reference isolate. All isolates are from the collection maintained at Quotient Bioresearch Ltd., Cambridge, UK.
(§3) The MIC values for the compounds and polymyxin B and levofloxacin were determined by broth microdilution following CLSI guidelines, and the MICs of agents in combination were determined as described by Pillai et.al (Pillai S K, Moellering R C Jr, Eliopoulis G M; Antimicrobial Combinations in Antibiotics in Laboratory Medicine 5th Edition (V. Lorian Ed) (2005) p 365-440). Initial MIC results were used to determine the microtiter plate patterns for the chequerboards. A suitable doubling dilution concentration range was selected such that the combination antibiotic range was at least two concentrations above and four concentrations below the MIC for each isolate. A fixed range of 0.008 to 8 mg/L was tested for polymyxin B except in the case of A. baumannii GN31 where a range of 0.004 to 4 mg/L was tested when in combination with the compounds 2, 33 and 35 as well as levofloxacin.

[2] = test system: GN31 Acinetobacter baumannii; experiment: as above; type: cell-based; settings: antibiotic susceptible clinical isolate
From the text: as §1, §2, §3

[3] = test system: GN48 Klebsiella pneumoniae; experiment: as above; type: cell-based; settings: GN48 / NCTC 13443, NCTC 13443, NDM-1
From the text: as §1, §2, §3

[4] = test system: GN56 Acinetobacter baumannii; experiment: as above; type: cell-based; settings: levofloxacin resistant clinical isolate
From the text: as §1, §2, §3

[5] = test system: GN52 Acinetobacter baumannii; experiment: as above; type: cell-based; settings: levofloxacin resistant clinical isolate
From the text: as §1, §2, §3

[6] = test system: K. pneumoniae BAA-2146 (NDM-1, FQ-R); experiment: MIC on K. pneumoniae (Example 5); type: cell-based; settings: Klebsiella pneumoniae, BAA2146, read-out: MIC K. pneumoniae BAA-2146 (NDM-1, FQ-R)
Method: MIC Values for all compounds were measured against a selection of bacterial strains. The MICs of 4-oxoquinolizines against a selection of Gram-negative and Gram-positive bacterial strains are shown in Table 13 in comparison with known antibiotics.

[7] = test system: A. baumannii A401; experiment: MIC without and with sub-inhibitory polymyxin B (Example 4); type: cell-based, Acinetobacter baumannii; settings: Acinetobacter baumannii, A401, A baumannii A 401; without polymyxin B; 2nd experiment; visual reading; read-out: MIC without PB
[8] = test system: P. aeruginosa 143-3-03; experiment: MIC, panel of quinolone-resistant strains (CLSI); type: cell-based; settings: Pseudomonas aeruginosa, 143303; CIP I, POL R
[9] = test system: E. coli IMP; experiment: microbe, parasite or virus in culture; settings: Escherichia coli, read-out: MIC E. coli IMP
[10] = test system: P. aeruginosa 1388-3-02; experiment: MIC, panel of quinolone-resistant strains (CLSI); type: cell-based; settings: Pseudomonas aeruginosa, 1388302; CIP R, POL R
[11] = test system: F. tularensis; experiment: microbe, parasite or virus in culture; type: cell-based; settings: Francisella tularensis, read-out: MIC F. tularensis
[12] = test system: Pseudomonas ssp PER-1; experiment: MIC, panel of quinolone-resistant strains (CLSI); type: cell-based, Pseudomonas spp; settings: PER1, CIP R, ESBL
[13] = test system: Klebsiella ssp KPC-3; experiment: MIC, panel of quinolone-resistant strains (CLSI); type: cell-based, Klebsiella spp; settings: KPC3, CIP R, ESBL
[14] = test system: A. Baumanii OXA-51; experiment: MIC, panel of quinolone-resistant strains (CLSI); type: cell-based; settings: Acinetobacter baumannii; CIP R, ESBL
[15] = test system: A. baumannii A390; experiment: MIC without and with sub-inhibitory polymyxin B (Example 4); type: cell-based, Acinetobacter baumannii; settings: Acinetobacter baumannii, A390, A. baumannii A390, without polymyxin B, read-out: MIC without PB
[16] = test system: B. anthracis; experiment: microbe, parasite or virus in culture; type: cell-based; settings: Bacillus anthracis, read-out: MIC B. anthracis
[17] = test system: A. baumannii A473; experiment: MIC without and with sub-inhibitory polymyxin B (Example 4); type: cell-based, Acinetobacter baumannii; settings: Acinetobacter baumannii, A473, A. baumannii A473, without polymyxin B, read-out: MIC without PB
[18] = test system: A. baumannii J2; experiment: as above; type: cell-based, Acinetobacter baumannii; settings: Acinetobacter baumannii, J2, A. baumannii J2; without polymyxin B; 1st experiment; read-out: MIC without PB
[19] = test system: A. baumannii ATCC 19606; experiment: Preliminary MBC without and with sub-inhibitory polymyxin B (Example 4); type: cell-based, Acinetobacter baumannii; settings: Acinetobacter baumannii, ATCC19606, read-out: MBC without PB
[20] = test system: E. coli 25922; experiment: MIC, standard panel of Gram-positive and Gram-negative bacteria (CLSI); type: cell-based, Escherichia coli; settings: Escherichia coli, 25922; CAMHB; read-out: MIC E. coli 25922
[21] = test system: A. baumannii A472; experiment: MIC without and with sub-inhibitory polymyxin B (Example 4); type: cell-based, Acinetobacter baumannii; settings: Acinetobacter baumannii, A472, A. baumannii A472; without polymyxin B; 1st experiment; read-out: MIC without PB
[22] = test system: A. baumannii A329; experiment: as above; type: cell-based, Acinetobacter baumannii; settings: Acinetobacter baumannii, A329, A. baumannii A329; without polymyxin B; 2nd experiment; visual reading; read-out: MIC without PB
[23] = test system: Acinetobacter sp. (H064200250); experiment: as above; type: cell-based; settings: Acinetobacter, without polymyxin B, read-out: MIC without PB
[24] = test system: Acinetobacter spp. H064200250; experiment: MIC determination for Acinetobacter strains (Example 3); type: cell-based, Acinetobacter sp.; settings: LEV R, CIP R, MRP R, IMP I
[25] = test system: Acinetobacter sp. (H064200250); experiment: Preliminary MBC without and with sub-inhibitory polymyxin B (Example 4); type: cell-based; settings: Acinetobacter, without polymyxin B, preliminary MBC, read-out: MBC without PB
Method: The plates were incubated for 18-20 hours at 37° C. The MBC was read as the lowest concentration at which colony growth was ca. 90% less than the positive control (i.e. usually where single colonies or no colonies were observed).

[26] = test system: B. abortus; experiment: microbe, parasite or virus in culture; type: cell-based; settings: Brucella abortus, read-out: MIC B. abortus
[27] = test system: S. pneumoniae 1027; experiment: MIC, panel of quinolone-resistant strains (CLSI); type: cell-based; settings: Streptococcus pneumoniae, LEV R
[28] = test system: E. coli 2906; experiment: MIC, panel of quinolone-resistant strains (CLSI); type: cell-based; settings: Escherichia coli, CIP R
[29] = test system: A. baumannii J2; experiment: MIC determination for Acinetobacter strains (Example 3); type: cell-based; settings: LEV R, CIP R
[30] = test system: E. coli CTX-M-15; experiment: MIC, panel of quinolone-resistant strains (CLSI); type: cell-based; settings: Escherichia coli, CTXM15; CIP R, ESBL
[31] = test system: E. faecium 19434; experiment: MIC, standard panel of Gram-positive and Gram-negative bacteria (CLSI); type: cell-based, Enterococcus faecium; settings: Enterococcus faecium, 19434; CAMHB; read-out: MIC E. faecium 19434
[32] = test system: resistant strains of A. baumannii and one strain of Acinetobacter sp.; experiment: MIC without and with sub-inhibitory polymyxin B, whole panel / MIC ranges (Example 4; also strains not listed separately); type: cell-based; settings: Acinetobacter baumannii
[33] = test system: B. pseudomallei; experiment: microbe, parasite or virus in culture; type: cell-based; settings: Burkholderia pseudomallei, read-out: MIC B. pseudomallei
[34] = test system: A. baumannii A489; experiment: MIC without and with sub-inhibitory polymyxin B (Example 4); type: cell-based, Acinetobacter baumannii; settings: Acinetobacter baumannii, A489, A. baumannii A489; without polymyxin B; 2nd experiment; visual reading; read-out: MIC without PB
[35] = test system: A. baumannii A472; experiment: MIC determination for Acinetobacter strains (Example 3); type: cell-based; settings: LEV R, CIP R, MRP I, IMP I, AMK R, TET R
[36] = test system: B. thailandensis; experiment: microbe, parasite or virus in culture; type: cell-based, Burkholderia thailandensis; settings: Burkholderia thailandensis, read-out: MIC90 B. thailandensis
[37] = test system: A. baumannii A473; experiment: MIC determination for Acinetobacter strains (Example 3); type: cell-based; settings: LEV R, CIP R, MRP R, IMP R, AMK R, TET R
[38] = test system: S. aureus 101; experiment: MIC, standard panel of Gram-positive and Gram-negative bacteria (CLSI); type: cell-based, Staphylococcus aureus; settings: Staphylococcus aureus, 101; CAMHB; read-out: MIC S. aureus 101
[39] = test system: A. baumannii A390; experiment: MIC determination for Acinetobacter strains (Example 3); type: cell-based; settings: LEV R, CIP R, MRP R, IPM I, AMK R, TET I
[40] = Acinetobacter spp. H064200250, 1st experiment

Cc1c(-c2ccc(N)nc2)ccn2c(=O)c(C(=O)O)cc(C3CC3)c12 [Compound 33, 8-(6-amino-3-pyridyl)-1-cyclopropyl-9-methyl-4-oxo-quinolizine-3-carboxylic acid]
MIC [1]: 0.5 µg/mL | MIC [2]: 0.03 µg/mL | MIC [3]: 16 µg/mL | MIC [4]: 16 µg/mL | MIC [5]: 2 µg/mL

Cc1c(-c2ccc3[nH]ncc3c2)ccn2c(=O)c(C(=O)[O-])cc(C3CC3)c12.[K+] [Compound 35 K salt, potassium 8-(1H-indazol-5-yl)-1-cyclopropyl-9-methyl-4-oxo-4H-quinolizine-3-carboxylate]
MIC [6]: > 8 µg/mL

Cc1c(-c2cc(F)c(N)cc2F)ccn2c(=O)c(C(=O)[O-])cc(C3CC3)c12.[K+] [Compound 2 K salt, Potassium 8-(4-amino-2,5-difluoro-phenyl)-1-cyclopropyl-9-methyl-4-oxo-4H-quinolizine-3-carboxylate]
MIC [6]: > 8 µg/mL

Cc1c(-c2ccc(CN)cc2)ccn2c(=O)c(C(=O)O)cc(C3CC3)c12 [Compound 5, 8-(4-aminomethyl-phenyl)-1-cyclopropyl-9-methyl-4-oxo-quinolizine-3-carboxylic acid]
MIC [7]: 8 µg/mL (≈ 23 µM) | MIC [8]: 4 µg/mL (≈ 11.5 µM) | MIC [9]: < 0.008 µg/mL | MIC [10]: 16 µg/mL (≈ 45.9 µM) | MIC [11]: 0.125 µg/mL (≈ 0.359 µM) | MIC [12]: 8 µg/mL (≈ 23 µM) | MIC [13]: 8 µg/mL (≈ 23 µM) | MIC [14]: 8 µg/mL (≈ 23 µM) | MIC ([15]; 1st experiment): 8 µg/mL (≈ 23 µM) | MIC ([15]; 2nd experiment, visual reading): 8 µg/mL (≈ 23 µM) | MIC [16]: 0.125 µg/mL (≈ 0.359 µM) | MIC ([17]; 1st experiment): 8 µg/mL (≈ 23 µM) | MIC ([17]; 2nd experiment, visual reading): 8 µg/mL (≈ 23 µM) | MIC [18]: 8 µg/mL (≈ 23 µM) | MBC [19]: 0.125 µg/mL (≈ 0.359 µM) | MIC [20]: < 0.03 µg/mL | MIC [21]: 8 µg/mL (≈ 23 µM) | MIC [22]: 8 µg/mL (≈ 23 µM) | MIC ([23]; Acinetobacter spp. H064200250 (OXA51), 2nd experiment, visual reading): 16 µg/mL (≈ 45.9 µM) | MIC [23, 40]: 16 µg/mL (≈ 45.9 µM) | MIC [24]: 16 µg/mL (≈ 45.9 µM) | MBC ([25]; Acinetobacter spp. H064200250 (OXA51), 2nd experiment): 16 µg/mL (≈ 45.9 µM) | MBC [25, 40]: 8 µg/mL (≈ 23 µM) | MIC [26]: 1 µg/mL (≈ 2.87 µM) | MIC [27]: 2 µg/mL (≈ 5.74 µM) | MIC [28]: 16 µg/mL (≈ 45.9 µM) | MIC [29]: 8 µg/mL (≈ 23 µM) | MIC [30]: 16 µg/mL (≈ 45.9 µM) | MIC [31]: 2 µg/mL (≈ 5.74 µM) | MIC ([32]; A. baumannii A14, without polymyxin B, 1st experiment, read-out: MIC without PB): 32 µg/mL (≈ 91.8 µM) | MIC ([32]; NCTC13301, A. baumannii NCTC 13301, without polymyxin B, 2nd experiment, visual reading, read-out: MIC without PB): 8 µg/mL (≈ 23 µM) | MIC ([32]; read-out: MIC range without PB 01-10-2008 n = 8, without polymyxin B, 1st experiment, 8 strains): 2 to 32 µg/mL (≈ 5.74 to 91.8 µM) | MIC ([32]; without polymyxin B, 2nd experiment, 11 strains, read-out: MIC range without PB 14-10-2008 n = 11): 4 to 16 µg/mL (≈ 11.5 to 45.9 µM) | MIC [33]: 2 µg/mL (≈ 5.74 µM) | MIC [34]: 8 µg/mL (≈ 23 µM) | MIC [35]: 8 µg/mL (≈ 23 µM) | MIC90 [36]: 0.39 µg/mL (≈ 1.12 µM) | MIC [37]: 8 µg/mL (≈ 23 µM) | MIC [38]: 4 µg/mL (≈ 11.5 µM) | MIC [39]: 8 µg/mL (≈ 23 µM)

Cc1c(-c2ccc(N)nc2)ccn2c(=O)c(C(=O)[O-])cc(C3CC3)c12.[K+] [Compound 33 K salt, potassium 8-(6-amino-pyridin-3-yl)-1-cyclopropyl-9-methyl-4-oxo-4H-quinolizine-3-carboxylate]
MIC [6]: > 8 µg/mL
